Where two headings read alike, the source gives them in different places. [ ]: non-standard residue; d: D form. Nva = CCC[C@H](N)C(=O)O

In general, AUC(0-t) refers to exposure summed from dosing to a finite time, without extrapolation to infinity. A lower AUC(0-t) goes with less exposure. For orientation: Cmax means the highest concentration seen after dosing. As a reminder, the Tmax is the time at which the peak concentration occurs.

The nature of data set [1]: Stability in human plasma at 37° C. The class given is in vitro ADME. The note with it: for % of Time 0 / remaining at 1 h, 1000 ng/ml / remaining at 8 h, 1000 ng/ml / remaining at 22 h, 1000 ng/ml: 1000 ng/ml; for % of Time 0: 0.00 hrs, N=3; for remaining at 1 h, 1000 ng/ml / remaining at 8 h, 1000 ng/ml / remaining at 22 h, 1000 ng/ml: N=3, read-out: % of Time 0; for resistance to proteolytic degradation compared with GLP1 peptide: 8 and 22 hours of incubation. As for the experimental part: The stability and resistance to proteolytic degradation of a number of ALY688-GLP1v fusion peptides were assessed following incubation in human plasma at 37° C.
HPLC (Supelco Discovery BIO Wide Pore C5-3 (2.1×50 mm) with a slow gradient to separate possible degradation products) was used to quantify each peptide. High resolution mass spectrometry (Thermo Q Exactive) Plus was used to collect full scan and MS2 spectra to characterize any possible degradants. The data were evaluated both manually and using Proteome Discoverer data mining software.
In the above tables, Temperature=37° C., Concentration=1000 ng/ml, and N=3/time point.

Data set [2] in a line: Pharmacokinetic profile in mice after single subcutaneous injection. The class given is in vivo. The conditions noted are these: 10 mg/kg; for AUC(0-t) / Cmax / Tmax: mouse, sc, plasma. As for the experimental part:
GLP1v peptide (with Gly8 substitution) and GLP1v fusion peptides were administered once by subcutaneous injection (concentration=10 mg/kg). Blood was collected into K2EDTA tubes containing a cocktails of protease inhibitors (DPP-4 and Aprotinin). The Bioanalytical Method BAM.0634.01 was used for the quantitation of GLP1v and GLP1v fusion peptides in K2EDTA mouse plasma. It is based on protein precipitation extraction followed by LC-MS/MS instrumental analysis and covers a measurement range from 1.00 to 1000 ng/mL. Samples were analyzed on a Waters Acquity liquid chromatograph interfaced with a Thermo Scientific TSQ Vantage triple quadrupole mass spectrometer with ESI ionization.

The nature of data set [3]: Oral glucose tolerance test after single intravenous injection in mice. It is filed as in vivo. The note with it: mice fasted 4 hours, intravenous injection 10 minutes before oral glucose load 1 g/kg. As to the method:
The oral glucose load was 1 g glucose/kg body weight. Blood glucose levels were measured with a glucometer at time −30 minutes, 0 (right before the oral glucose load), 15, 30, 60 and 90 minutes after the oral glucose load. Mice were euthanized after the time 90 minutes.

The test system of data set [4] is P38MAPK (T180/Y182) phosphorylation. The note with it: L6 murine skeletal muscle cells, ALY688 alone, previously shown; cited from earlier work.

In the case of `CCC[C@H](NC(=O)[C@@H]1CCCN1C(=O)[C@@H](NC(=O)[C@H](N)CC(N)=O)[C@@H](C)CC)C(=O)N[C@@H](CC(C)C)C(=O)N[C@@H](Cc1ccc(O)cc1)C(=O)N[C@H](CO)C(=O)N[C@@H](Cc1ccccc1)C(=O)N[C@@H](C)C(=O)N[C@H](CO)C(=O)NCC(=O)NCC(=O)NCC(=O)NCCCC[C@H](NC(=O)[C@H](C)NC(=O)[C@H](C)NC(=O)[C@H](CCC(N)=O)NC(=O)CNC(=O)[C@H](CCC(=O)O)NC(=O)[C@H](CC(C)C)NC(=O)[C@H](Cc1ccc(O)cc1)NC(=O)[C@H](CO)NC(=O)[C@H](CO)NC(=O)[C@@H](NC(=O)[C@H](CC(=O)O)NC(=O)[C@H](CO)NC(=O)[C@@H](NC(=O)[C@H](Cc1ccccc1)NC(=O)[C@@H](NC(=O)CNC(=O)[C@H](CCC(=O)O)NC(=O)CNC(=O)[C@@H](N)Cc1c[nH]cn1)[C@@H](C)O)[C@@H](C)O)C(C)C)C(=O)N[C@@H](CCC(=O)O)C(=O)N[C@@H](Cc1ccccc1)C(=O)N[C@H](C(=O)N[C@@H](C)C(=O)N[C@@H](Cc1c[nH]c2ccccc12)C(=O)N[C@@H](CC(C)C)C(=O)N[C@H](C(=O)N[C@@H](CCCCN)C(=O)NCC(=O)N[C@@H](CCCNC(=N)N)C(N)=O)C(C)C)[C@@H](C)CC` [ALY688-GLP1v(Lys26)], in data set [1], the “% of Time 0” value was found to be 100%; the remaining at 1 h, 1000 ng/ml is 99%; the remaining at 8 h, 1000 ng/ml is 74%; the remaining at 22 h, 1000 ng/ml stood at 40%. In data set [1], the “resistance to proteolytic degradation compared with GLP1 peptide” value is given as “better resistance to proteolytic degradation”. For the same compound, in data set [2], the “change in AUC / total exposure compared with GLP1v peptide” value (shortened to “change in AUC / total exposure”) was “two-fold increase”, the AUC(0-t) is 1020 ng·h/mL, the highest concentration (Cmax) is 1610 ng/mL and the Tmax was 10 min. For the same compound, the “blood glucose levels after glucose load” value in data set [3] is reported as “greater glucose lowering action”.
On to `CCC[C@H](NC(=O)[C@@H]1CCCN1C(=O)[C@@H](NC(=O)[C@H](N)CC(N)=O)[C@@H](C)CC)C(=O)N[C@@H](CC(C)C)C(=O)N[C@@H](Cc1ccc(O)cc1)C(=O)N[C@H](CO)C(=O)N[C@@H](Cc1ccccc1)C(=O)N[C@@H](C)C(=O)N[C@H](CO)C(=O)NCC(=O)NCC(=O)NCC(=O)NCCCC[C@H](NC(=O)[C@H](C)NC(=O)[C@H](C)NC(=O)[C@H](CCC(N)=O)NC(=O)CNC(=O)[C@H](CCC(=O)O)NC(=O)[C@H](CC(C)C)NC(=O)[C@H](Cc1ccc(O)cc1)NC(=O)[C@H](CO)NC(=O)[C@H](CO)NC(=O)[C@@H](NC(=O)[C@H](CC(=O)O)NC(=O)[C@H](CO)NC(=O)[C@@H](NC(=O)[C@H](Cc1ccccc1)NC(=O)[C@@H](NC(=O)CNC(=O)[C@H](CCC(=O)O)NC(=O)CNC(=O)[C@@H](N)Cc1c[nH]cn1)[C@@H](C)O)[C@@H](C)O)C(C)C)C(=O)N[C@@H](CCC(=O)O)C(=O)N[C@@H](Cc1ccccc1)C(=O)N[C@H](C(=O)N[C@@H](C)C(=O)N[C@@H](Cc1c[nH]c2ccccc12)C(=O)N[C@@H](CC(C)C)C(=O)N[C@H](C(=O)N[C@@H](CCCCNC(=O)CNC(=O)CNC(=O)CNC(=O)[C@@H](CO)NC(=O)[C@H](C)NC(=O)[C@H](Cc1ccccc1)NC(=O)[C@@H](CO)NC(=O)[C@H](Cc1ccc(O)cc1)NC(=O)[C@H](CC(C)C)NC(=O)[C@H](CCC)NC(=O)[C@@H]1CCCN1C(=O)[C@@H](NC(=O)[C@H](N)CC(N)=O)[C@@H](C)CC)C(=O)NCC(=O)N[C@@H](CCCNC(=N)N)C(N)=O)C(C)C)[C@@H](C)CC` [ALY688-GLP1v(Lys26,34)], for which, in data set [2], the “change in AUC / total exposure” value is “decrease in total exposure”, the “change in Tmax compared with GLP1v peptide” value was “further increase in the Tmax”, the area under the curve AUC(0-t) was 358 ng·h/mL and the concentration peaked (Cmax) at 372 ng/mL. Besides, the Tmax in data set [2] is 15 min.
`CCC[C@H](NC(=O)[C@@H]1CCCN1C(=O)[C@@H](NC(=O)[C@H](N)CC(N)=O)[C@@H](C)CC)C(=O)N[C@@H](CC(C)C)C(=O)N[C@@H](Cc1ccc(O)cc1)C(=O)N[C@H](CO)C(=O)N[C@@H](Cc1ccccc1)C(=O)N[C@@H](C)C(=O)N[C@H](CO)C(=O)NCC(=O)NCC(=O)NCC(=O)NCCCC[C@H](NC(=O)[C@@H](NC(=O)[C@H](CC(C)C)NC(=O)[C@H](Cc1c[nH]c2ccccc12)NC(=O)[C@H](C)NC(=O)[C@@H](NC(=O)[C@H](Cc1ccccc1)NC(=O)[C@H](CCC(=O)O)NC(=O)[C@H](CCCCN)NC(=O)[C@H](C)NC(=O)[C@H](C)NC(=O)[C@H](CCC(N)=O)NC(=O)CNC(=O)[C@H](CCC(=O)O)NC(=O)[C@H](CC(C)C)NC(=O)[C@H](Cc1ccc(O)cc1)NC(=O)[C@H](CO)NC(=O)[C@H](CO)NC(=O)[C@@H](NC(=O)[C@H](CC(=O)O)NC(=O)[C@H](CO)NC(=O)[C@@H](NC(=O)[C@H](Cc1ccccc1)NC(=O)[C@@H](NC(=O)CNC(=O)[C@H](CCC(=O)O)NC(=O)CNC(=O)[C@@H](N)Cc1c[nH]cn1)[C@@H](C)O)[C@@H](C)O)C(C)C)[C@@H](C)CC)C(C)C)C(=O)NCC(=O)N[C@@H](CCCNC(=N)N)C(N)=O` [ALY688-GLP1v(Lys34)]: in data set [1], the “% of Time 0” value is 100%; the remaining at 1 h, 1000 ng/ml stood at 95%; the remaining at 8 h, 1000 ng/ml came to 74%; the remaining at 22 h, 1000 ng/ml worked out at 49%. In addition, the “resistance to proteolytic degradation compared with GLP1 peptide” value in data set [1] is “better resistance to proteolytic degradation”. Besides, in data set [2], the “change in AUC / total exposure” value is “decrease in total exposure”, the “change in Tmax compared with GLP1v peptide” value is given as “further increase in the Tmax”, the AUC(0-t) was 177 ng·h/mL and the highest level (Cmax) was 267 ng/mL. Besides, in data set [2], the Tmax was 15 min. The “blood glucose levels after glucose load” value in data set [3] is “greater glucose lowering action”.
In the case of `CC[C@H](C)[C@H](NC(=O)[C@H](Cc1ccccc1)NC(=O)[C@H](CCC(=O)O)NC(=O)[C@H](CCCCN)NC(=O)[C@H](C)NC(=O)[C@H](C)NC(=O)[C@H](CCC(N)=O)NC(=O)CNC(=O)[C@H](CCC(=O)O)NC(=O)[C@H](CC(C)C)NC(=O)[C@H](Cc1ccc(O)cc1)NC(=O)[C@H](CO)NC(=O)[C@H](CO)NC(=O)[C@@H](NC(=O)[C@H](CC(=O)O)NC(=O)[C@H](CO)NC(=O)[C@@H](NC(=O)[C@H](Cc1ccccc1)NC(=O)[C@@H](NC(=O)CNC(=O)[C@H](CCC(=O)O)NC(=O)CNC(=O)[C@@H](N)Cc1cnc[nH]1)[C@@H](C)O)[C@@H](C)O)C(C)C)C(=O)N[C@@H](C)C(=O)N[C@@H](Cc1c[nH]c2ccccc12)C(=O)N[C@@H](CC(C)C)C(=O)N[C@H](C(=O)N[C@@H](CCCCN)C(=O)NCC(=O)N[C@@H](CCCNC(=N)N)C(N)=O)C(C)C` [GLP1v with Gly8 substitution, reference compound], the “% of Time 0” value in data set [1] was 100%. Further, in data set [1] (human plasma (K2EDTA)), the remaining at 1 h, 1000 ng/ml stood at 85%; the remaining at 8 h, 1000 ng/ml came out at 41%; the remaining at 22 h, 1000 ng/ml was 24%. For the same compound, in data set [2], the AUC(0-t) is 525 ng·h/mL, the Cmax was determined as 781 ng/mL and the Tmax is 5 min. Also, in data set [3], the “blood glucose levels after glucose load” value is listed as “expected glucose-lowering activity”.
Regarding “H-DAsn-Ile-Pro-Nva-Leu-Tyr-DSer-Phe-Ala-DSer-NH2 (H-[dN]IP[Nva]LY[dS]FA[dS]-NH2; SMILES CCC[C@H](NC(=O)[C@@H]1CCCN1C(=O)[C@@H](NC(=O)[C@H](N)CC(N)=O)[C@@H](C)CC)C(=O)N[C@@H](CC(C)C)C(=O)N[C@@H](Cc1ccc(O)cc1)C(=O)N[C@H](CO)C(=O)N[C@@H](Cc1ccccc1)C(=O)N[C@@H](C)C(=O)N[C@H](CO)C(N)=O) [ALY688, 10 amino acid chemically synthesized adiponectin receptor agonist peptide, reference compound]”, the “P38MAPK (T180/Y182) phosphorylation” value in data set [4] was “increased”. Further, the “blood glucose levels after glucose load” value in data set [3] is “no glucose effect”.

The values are drawn from patent US20230021946A1, “MONOMERIC FUSION PEPTIDES AND METHOD OF USE THEREOF” (priority 2021, published 2023).
